Experimental data as given in patent publication US20170246166A1, “1,2-BENZOTHIAZOLE COMPOUNDS FOR THE TREATMENT OF KIDNEY DISORDERS” (priority 2014, published 2017).

Experiments:
[1] = target: human PKCβ2 (Homo sapiens, UniProt P05771); test: PKC isoforms based HTRF KinEASE-STK assay, PKCβ2; type: biochemical; conditions: 25 μM ATP in substrate mix, 30 min
Excerpt: The purpose of this assay is to evaluate the inhibitory activity of compounds on various PKC isoforms. It has been reported that perturbations in vascular cell homeostasis caused by different PKC isoforms (PKC-α, β1/2, and PKC-δ) are linked to the development of pathologies affecting large vessel (atherosclerosis, cardiomyopathy) and small vessel (retinopathy, nephropathy, and neuropathy) complications. Geraldes, P. and King, G. L., “Activation of Protein Kinase C Isoforms and Its Impact on Diabetic Complications”, Cir.
Effects of a test compound on the kinase activity of PKCα, β2, δ, ε, ι, and ζ, are determined using a HTRF KINEASE™-STK assay kit (Cisbio) in accordance with the protocol provided by the vendor. It is a general method for measuring Serine/Threonine kinase activities using kinase substrates and a universal detection system. In the current protocol, biotinilated STK1provided in the assay kit is used as the substrate that can be phosphorylated by any PKC isoform. The HTRF KINEASE™-STK assay kit format involves the two steps (Enzymatic step and Detection step) described below. First, the kinase phosphorylates the substrate in the presence of ATP. Second, the detection reagents provided in the assay kit recognize the phosphorylated substrate.

[2] = tested on: PKC; test: PKC in vivo target inhibition assay (pleckstrin phosphorylation in blood cells); set-up: species or system mouse; conditions: male ICR mice, oral gavage, 2 h after treatment
Procedure: The purpose of this assay is to evaluate the effects of in vivo administration of a test compound on PKC substrate phosphorylation in blood cells.
Pleckstrin is one of the PKC protein substrates and is primarily expressed in platelets and peripheral blood mononuclear cells (PBMC). Pleckstrin phosphorylation is proportional to PKC activity. The phosphorylation state of the pleckstrin protein in purified platelets and PBMC from mouse blood is analyzed via Western blotting using a primary antibody specific for phosphorylated PKC substrates. This antibody recognizes multiple phosphorylated PKC substrates that include, but are not limited to p-pleckstrin. The p-pleckstrin band is identified based on its molecular weight.
Male ICR mice (Charles River) are dosed by oral gavage with a test compound homogenized in 1% hydroxethylcellulose/0.25% TWEEN® 80, at a concentration range of 0.3-3 mg/mL, depending on dose; thus dosing volume is 10 ml/kg body weight. Staurosporine, dissolved in the same vehicle, may be used as a positive control to verify that the assay is functioning. […]
10% SDS-PAGE is conducted on the cell lysates (30 μg protein loaded per lane), with 130 V for 90 min. […] Intensity of near-infrared fluorescence is proportional to the level of PKC substrate phosphorylation. It is quantitated with ODYSSEY® software. […]

human PKCβ2, sequence (P05771 1-673 isoform P05771-2): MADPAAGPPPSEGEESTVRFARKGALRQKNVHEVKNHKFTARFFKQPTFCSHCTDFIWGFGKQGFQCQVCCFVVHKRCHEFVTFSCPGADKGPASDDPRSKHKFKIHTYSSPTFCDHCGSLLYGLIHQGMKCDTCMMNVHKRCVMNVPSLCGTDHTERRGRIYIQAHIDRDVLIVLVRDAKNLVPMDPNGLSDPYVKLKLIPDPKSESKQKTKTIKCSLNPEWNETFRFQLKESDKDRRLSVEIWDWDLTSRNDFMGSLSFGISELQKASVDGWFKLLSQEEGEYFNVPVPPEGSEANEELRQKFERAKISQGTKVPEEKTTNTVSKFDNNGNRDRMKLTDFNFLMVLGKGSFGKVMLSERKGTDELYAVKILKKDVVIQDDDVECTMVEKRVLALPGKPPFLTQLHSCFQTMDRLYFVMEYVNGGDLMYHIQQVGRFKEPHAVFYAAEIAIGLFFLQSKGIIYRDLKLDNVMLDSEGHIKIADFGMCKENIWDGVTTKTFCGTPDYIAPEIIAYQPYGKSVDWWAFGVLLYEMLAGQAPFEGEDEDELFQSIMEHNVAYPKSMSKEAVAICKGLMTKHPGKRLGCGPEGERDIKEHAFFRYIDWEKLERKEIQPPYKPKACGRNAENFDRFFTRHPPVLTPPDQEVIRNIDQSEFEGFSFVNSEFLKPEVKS

IC50 [1]: ~0.051 µM
SMILES: C[C@@H]1CN(C(=O)c2cc(-c3c(F)cc(O)cc3F)cc3cnsc23)C[C@H](C)N1.Cl [Example 2, 4-(7-{[(3R,5 S)-3,5-DIMETHYLPIPERAZIN-1-YL]CARBONYL}-1,2-BENZOTHIAZOL-5-YL)-3,5-DIFLUOROPHENOL HYDROCHLORIDE]
ID50, pleckstrin phosphorylation, PBMCs ([2]; PBMCs): about 18.03 mg/kg
ID50, pleckstrin phosphorylation, platelets ([2]; platelets): about 11.85 mg/kg
